In ChEMBL document CHEMBL1201862, “PubChem BioAssay data set” (2004):
Active and inactive are the calls of the source.

Experiments:
Coagulation factor XII = target: T1, Coagulation factor XII (Homo sapiens, UniProt P00748); format: functional;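 further: activated factor XIIa alpha cleaving a fluorogenic AMC peptide substrate; inhibitor potency from loss of enzyme activity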
T1 sequence (P00748 whole entry): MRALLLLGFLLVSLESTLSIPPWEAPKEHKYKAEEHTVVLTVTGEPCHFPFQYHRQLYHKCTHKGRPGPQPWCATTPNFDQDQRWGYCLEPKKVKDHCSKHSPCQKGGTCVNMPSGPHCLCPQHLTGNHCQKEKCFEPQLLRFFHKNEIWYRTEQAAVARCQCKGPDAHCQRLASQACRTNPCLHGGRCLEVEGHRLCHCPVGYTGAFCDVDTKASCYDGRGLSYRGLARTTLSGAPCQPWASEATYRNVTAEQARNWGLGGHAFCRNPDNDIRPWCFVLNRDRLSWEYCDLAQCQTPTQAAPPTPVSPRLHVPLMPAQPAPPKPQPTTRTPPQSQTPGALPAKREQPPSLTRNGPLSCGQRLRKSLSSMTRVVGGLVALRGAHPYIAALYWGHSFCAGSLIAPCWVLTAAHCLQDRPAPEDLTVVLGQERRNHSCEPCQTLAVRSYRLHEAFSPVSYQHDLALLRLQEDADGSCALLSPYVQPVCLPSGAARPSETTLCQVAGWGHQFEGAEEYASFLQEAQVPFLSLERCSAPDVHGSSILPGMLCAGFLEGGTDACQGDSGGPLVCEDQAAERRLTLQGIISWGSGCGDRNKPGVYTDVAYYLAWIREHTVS

[1] = target: T2, Polyadenylate-binding protein 1 (Homo sapiens, UniProt P11940); experiment: PABP1 MLLE–PAM2 interaction inhibitors, dose response, miRNA deadenylation inhibitor project, biochemical, fluorescence polarization, Cy5-PAM2 peptide, secondary (AID 602260); format: functional; conditions: read-out: IC50_Mean
[2] = target: T2, Polyadenylate-binding protein 1; experiment: PABP1 MLLE–PAM2 binding inhibitor potency, dose response, biochemical, fluorescence polarization, FITC-PAM2 peptide (AID 602259); format: functional; conditions: read-out: IC50_Mean
[3] = target: T3, Adenosylmethionine-8-amino-7-oxononanoate aminotransferase (Mycobacterium tuberculosis, UniProt P9WQ81); experiment: Mycobacterium tuberculosis BioA enzyme inhibitor Measured in Biochemical System Using Plate Reader - 2163-02_Inhibitor_Dose_CherryPick_Activity.; format: functional, Mycobacterium tuberculosis UT205
T3 sequence (P9WQ81 whole entry): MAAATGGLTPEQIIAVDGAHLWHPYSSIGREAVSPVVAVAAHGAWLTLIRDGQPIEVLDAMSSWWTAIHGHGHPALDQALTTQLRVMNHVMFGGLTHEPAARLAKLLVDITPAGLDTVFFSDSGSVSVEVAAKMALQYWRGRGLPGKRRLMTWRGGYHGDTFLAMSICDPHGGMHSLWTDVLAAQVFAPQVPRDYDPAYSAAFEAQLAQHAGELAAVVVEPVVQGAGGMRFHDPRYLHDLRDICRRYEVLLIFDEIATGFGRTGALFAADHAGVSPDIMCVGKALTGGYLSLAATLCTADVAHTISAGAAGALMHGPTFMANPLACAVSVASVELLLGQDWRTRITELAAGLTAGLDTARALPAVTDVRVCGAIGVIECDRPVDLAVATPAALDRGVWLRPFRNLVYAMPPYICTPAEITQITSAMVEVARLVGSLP

[4] = target: DNA dC->dU-editing enzyme APOBEC-3G (Homo sapiens, UniProt Q9HC16); experiment: Dose Response confirmation of small molecule APOBEC3G DNA Deaminase Inhibitors via a fluorescence-based single-stranded DNA deaminase assay. [Related pubchem assays (depositor defined):AID493012, AID493028]; format: functional
[5] = target: Induced myeloid leukemia cell differentiation protein Mcl-1 (Homo sapiens, UniProt Q07820); format: functional
HeLa = experiment: HeLa cell cytotoxicity, dose response, cytotoxicity control for MITF activator project, CellTiter-Glo luminescence, cherry-pick samples (AID 540259); format: functional, cell-based; conditions: Homo sapiens
Leucine aminopeptidase = target: T4, Leucine aminopeptidase (Plasmodium falciparum 3D7, UniProt Q8IL11); experiment: P. falciparum M17LAP inhibitors, primary screen, biochemical, fluorogenic H-Leu-NHMec substrate, 1536-well (AID 1619); format: functional
T4 sequence (Q8IL11 whole entry): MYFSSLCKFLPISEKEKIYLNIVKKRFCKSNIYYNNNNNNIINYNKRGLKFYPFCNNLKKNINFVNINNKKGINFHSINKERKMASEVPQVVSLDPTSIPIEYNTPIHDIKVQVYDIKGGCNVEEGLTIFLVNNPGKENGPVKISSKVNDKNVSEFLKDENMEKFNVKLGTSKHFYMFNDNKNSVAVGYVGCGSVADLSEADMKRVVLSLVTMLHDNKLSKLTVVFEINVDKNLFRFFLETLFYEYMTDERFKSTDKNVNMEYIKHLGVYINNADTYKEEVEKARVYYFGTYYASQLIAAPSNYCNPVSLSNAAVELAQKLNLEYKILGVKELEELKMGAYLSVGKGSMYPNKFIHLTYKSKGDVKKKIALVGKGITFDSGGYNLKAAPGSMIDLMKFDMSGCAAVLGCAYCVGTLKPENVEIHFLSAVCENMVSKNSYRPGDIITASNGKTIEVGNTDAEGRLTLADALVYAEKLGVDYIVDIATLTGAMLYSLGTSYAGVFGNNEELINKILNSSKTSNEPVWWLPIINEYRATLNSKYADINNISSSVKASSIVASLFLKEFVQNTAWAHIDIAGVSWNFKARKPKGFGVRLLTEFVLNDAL

[6] = target: T5, Short transient receptor potential channel 4 (Mus musculus, UniProt Q9QUQ5); experiment: mouse TRPC4 channel inhibitors, dose response, cell-based, HEK293 TRPC4/mu-opioid, Fluo-4 calcium (AID 434942); format: functional;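 further: potency of inhibitors blocking the TRPC4 calcium response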
T5 sequence (Q9QUQ5 whole entry): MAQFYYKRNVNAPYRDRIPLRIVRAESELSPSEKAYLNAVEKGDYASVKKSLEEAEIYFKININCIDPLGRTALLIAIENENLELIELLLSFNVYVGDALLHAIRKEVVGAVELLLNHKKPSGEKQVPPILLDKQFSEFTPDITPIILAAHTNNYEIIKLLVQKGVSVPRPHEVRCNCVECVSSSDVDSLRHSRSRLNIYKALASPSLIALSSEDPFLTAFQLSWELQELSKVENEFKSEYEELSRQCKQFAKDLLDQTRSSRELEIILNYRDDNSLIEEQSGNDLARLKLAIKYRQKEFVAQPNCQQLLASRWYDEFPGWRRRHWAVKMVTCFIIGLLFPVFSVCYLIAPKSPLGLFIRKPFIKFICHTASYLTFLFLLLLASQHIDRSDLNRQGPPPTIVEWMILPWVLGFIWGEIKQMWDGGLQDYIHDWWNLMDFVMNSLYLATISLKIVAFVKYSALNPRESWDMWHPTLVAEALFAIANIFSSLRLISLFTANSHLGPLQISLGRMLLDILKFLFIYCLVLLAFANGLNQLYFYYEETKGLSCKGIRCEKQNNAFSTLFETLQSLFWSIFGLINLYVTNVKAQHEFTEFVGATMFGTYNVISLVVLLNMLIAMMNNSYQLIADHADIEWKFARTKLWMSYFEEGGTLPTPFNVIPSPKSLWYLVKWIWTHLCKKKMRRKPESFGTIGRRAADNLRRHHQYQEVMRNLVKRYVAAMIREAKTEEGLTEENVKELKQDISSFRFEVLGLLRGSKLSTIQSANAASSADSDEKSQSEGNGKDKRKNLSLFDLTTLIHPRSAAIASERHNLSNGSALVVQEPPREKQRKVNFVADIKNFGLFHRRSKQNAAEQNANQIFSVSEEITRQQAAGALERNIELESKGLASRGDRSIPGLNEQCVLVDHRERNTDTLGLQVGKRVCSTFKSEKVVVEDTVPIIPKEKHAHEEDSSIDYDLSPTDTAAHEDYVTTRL

Protein Wnt-3a = Protein Wnt-3a (Mus musculus, UniProt P27467); experiment: Wnt3a-driven reporter signaling inhibition, dose response, selectivity assay for Gli-SUFU antagonist project, Wnt-LIGHT cells, luminescence (AID 651570); format: functional; conditions: read-out: IC50_Mean;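 further: Wnt-LIGHT reporter cells stimulated with conditioned medium from Wnt3a-producing cells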
Chain of Protein Wnt-3a (P27467 whole entry): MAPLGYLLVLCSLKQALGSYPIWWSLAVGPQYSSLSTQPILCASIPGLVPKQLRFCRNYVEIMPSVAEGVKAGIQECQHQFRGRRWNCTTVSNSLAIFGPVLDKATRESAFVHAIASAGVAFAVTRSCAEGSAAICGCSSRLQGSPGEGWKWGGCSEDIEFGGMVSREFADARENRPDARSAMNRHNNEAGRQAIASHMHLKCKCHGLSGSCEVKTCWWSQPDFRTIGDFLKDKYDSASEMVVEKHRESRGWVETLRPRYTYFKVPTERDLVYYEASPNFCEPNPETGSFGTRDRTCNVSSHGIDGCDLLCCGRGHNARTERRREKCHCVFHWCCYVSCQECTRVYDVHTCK

T2 sequence (P11940 whole entry): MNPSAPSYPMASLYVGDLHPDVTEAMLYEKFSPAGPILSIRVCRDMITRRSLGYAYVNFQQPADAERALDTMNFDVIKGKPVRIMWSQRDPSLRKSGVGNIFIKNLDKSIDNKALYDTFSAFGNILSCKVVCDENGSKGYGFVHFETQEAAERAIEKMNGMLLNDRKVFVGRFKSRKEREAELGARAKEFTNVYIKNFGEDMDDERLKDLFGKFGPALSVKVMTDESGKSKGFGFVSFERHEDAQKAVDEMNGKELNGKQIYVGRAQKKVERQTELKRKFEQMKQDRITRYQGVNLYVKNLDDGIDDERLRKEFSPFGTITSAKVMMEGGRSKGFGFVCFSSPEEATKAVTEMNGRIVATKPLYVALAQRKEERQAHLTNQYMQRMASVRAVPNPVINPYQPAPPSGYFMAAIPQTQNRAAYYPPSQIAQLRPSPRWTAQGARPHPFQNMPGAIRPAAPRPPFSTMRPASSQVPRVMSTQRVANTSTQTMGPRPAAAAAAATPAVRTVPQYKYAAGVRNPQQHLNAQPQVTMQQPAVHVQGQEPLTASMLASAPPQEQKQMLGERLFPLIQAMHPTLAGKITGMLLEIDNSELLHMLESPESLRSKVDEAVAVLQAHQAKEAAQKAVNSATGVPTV
Chain of DNA dC->dU-editing enzyme APOBEC-3G (Q9HC16 whole entry): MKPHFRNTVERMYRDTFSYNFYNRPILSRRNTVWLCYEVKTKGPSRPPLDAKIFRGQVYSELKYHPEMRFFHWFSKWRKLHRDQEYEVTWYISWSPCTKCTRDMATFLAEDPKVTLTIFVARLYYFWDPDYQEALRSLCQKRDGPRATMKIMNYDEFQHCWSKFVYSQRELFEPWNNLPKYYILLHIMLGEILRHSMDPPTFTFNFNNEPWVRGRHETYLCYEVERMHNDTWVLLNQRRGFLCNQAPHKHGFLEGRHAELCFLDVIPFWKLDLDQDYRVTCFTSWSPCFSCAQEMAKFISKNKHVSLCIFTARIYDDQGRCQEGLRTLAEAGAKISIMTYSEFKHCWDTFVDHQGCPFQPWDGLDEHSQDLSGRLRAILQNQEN
Chain of Induced myeloid leukemia cell differentiation protein Mcl-1 (Q07820 whole entry): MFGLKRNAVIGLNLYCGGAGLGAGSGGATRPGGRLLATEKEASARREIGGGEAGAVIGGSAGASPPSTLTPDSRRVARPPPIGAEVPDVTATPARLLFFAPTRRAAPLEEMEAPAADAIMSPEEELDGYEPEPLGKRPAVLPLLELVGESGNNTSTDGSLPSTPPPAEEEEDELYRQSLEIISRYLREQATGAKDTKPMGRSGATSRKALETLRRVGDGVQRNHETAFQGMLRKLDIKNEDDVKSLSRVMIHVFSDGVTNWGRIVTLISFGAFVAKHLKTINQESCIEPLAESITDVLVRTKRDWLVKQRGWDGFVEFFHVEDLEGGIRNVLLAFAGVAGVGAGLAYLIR

CCOc1ccc(-n2c(SCC(=O)Nc3cc(C)on3)nnc2-c2c[nH]c3ccccc23)cc1
IC50 (Coagulation factor XII): > 50 µM (inactive)

O=C(CSc1nc2c(c(=O)n1-c1ccc(F)cc1)SCC2)NCc1ccco1
IC50 [1]: > 66 µM (inactive) | IC50 [2]: > 66 µM (inactive)

O=C(C1CCCN(S(=O)(=O)c2cccnc2)C1)N1CCn2c1nc1ccccc12 (stereo unspecified)
AC50 [3]: 14 µM (active)

c1ccc2c(c1)OCC(c1nnc3sc(-c4ccc5c(c4)OCO5)nn13)O2 (stereo unspecified)
IC50 [4]: 52.8 µM (active)

COc1ccc(/C=C(\C#N)c2n[nH]c(Cn3cncn3)n2)cc1
IC50 (Coagulation factor XII): > 50 µM (inconclusive)

Cc1cc(O)n2nc(-c3ccsc3-n3c(C)ccc3C)cc2n1
IC50 [5]: 4.96 µM (active)

CCOCCn1c(-c2ccc(OC)cc2)nc2ccccc21
IC50 (Coagulation factor XII): > 50 µM (inactive)

O=C(NC1CCCCCC1)c1c(O)nc2ccccc2c1O
AC50 (HeLa): 62.7 µM (active)

CCCN1CCN(C(=O)C2CCN(c3nnc(C)c4c(C)n(-c5ccc(C)cc5)nc34)CC2)CC1
AC50 [3]: 12.3 µM (active)

CCOc1ccc(N(CC(=O)Nc2cccc(F)c2)S(=O)(=O)c2c(C)noc2C)cc1
IC50 (Coagulation factor XII): > 50 µM (inactive)

N#Cc1c(NC(=O)C2CC(c3ccccc3O)=NO2)sc2c1CCC2 (stereo unspecified)
IC50 [1]: > 66 µM (inactive) | IC50 [2]: > 66 µM (inactive)

O=C(NCc1ccco1)C(=O)c1cn(CC(=O)N2CCCCCC2)c2ccccc12
IC50 (Leucine aminopeptidase): 11.6 µM (active)

CNc1nc(NCc2ccccc2)c2ccccc2n1
EC50 [6]: 1.19 µM (active) | IC50 (Protein Wnt-3a): 43.1 µM (inactive)
